In patent US20240279215A1 (Cytokinetics, Incorporated, priority 2022, published 2024):
pEC50: −log10 of the molar value. Like-named read-outs stand apart in the source and are kept apart here.

How the values were obtained:
P-gp (MDR1) [1] = experiment: in vitro; conditions: dog, MDCK-MDR1, pH 7.4, Efflux ratio
Procedure: (§1) A bidirectional permeability assay using Madin Darby canine kidney cells expressing multi-drug resistance gene 1 (MDCK-MDR1) is routinely used to evaluate discovery compounds' BBB permeability and drug efflux toward the advancement of discovery compounds with brain penetration.
(§2) MDCK-MDR1 Cells (NIH cell line) were obtained from the National Institutes of Health. […] Cell culture medium was replaced every other day, beginning no later than 24 hours after the initial plating. […] The dosing solution concentration was 1 μM for the test article in the assay buffer. Cell monolayers were dosed on the apical side (A-to-B) or basolateral side (B-to-A) and incubated at 37° C. under an atmosphere of 5% CO2 in a humidified incubator. Samples were taken from the donor and receiver chambers at 120 minutes. Each determination was performed in duplicate. After the 120 min transport period, the flux of lucifer yellow was also measured for each monolayer to ensure no damage was inflicted to the cell monolayers during the transport period. All samples were assayed by LC-MS/MS (Waters XSelect HSS T3 C18, 2.5 m, 2.1×50 mm) using electrospray ionization with 0.1% formic acid in water (mobile phase A) and 0.1% formic acid in acetonitrile (mobile phase B) as mobile phases. The apparent permeability coefficient (Papp), in units of cm per second, was calculated for MDCK-MDR1 Cells (NIH cell line) drug transport assays using the following equation:
(§3) Where VA is the volume (in mL) in the acceptor well, Area is the surface area of the membrane (0.143 cm^2 for Transwell-96 Well Permeable Supports), and time is the total transport time in seconds.
(§4) The leakage of Lucifer Yellow (LY), in unit of percentage (%), can be calculated using the following equation:
(§5) LY leakage of <1% is acceptable to indicate the well-qualified MDCK-MDR1(NIH) monolayer.

[2] = system: MDCK-MDR1 cells (P-gp, MDR1); conditions: dog, MDCK-MDR1, 120 min, 1 μM, pH 7.4
Procedure: as §1, §2, §3, §4, §5

human NAMPT = human NAMPT (Homo sapiens (Human), UniProt P43490); experiment: NMN fluorescence biochemical assay (human recombinant NAMPT enzyme assay)
Outline: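 Activation of recombinant human NAMPT (6 nM) was tested with 2.5 mM ATP, 20 μM PRPP and 150 μM nicotinamide in 50 mM HEPES pH 7.2 for 60 min at ambient temperature. NMN was derivatized with acetophenone/KOH/formic acid and read by fluorescence (355/460 nm) after 40 min.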

[3] = Plasma protein binding (PPB), mouse; type: in vitro ADME; conditions: mouse, plasma
[4] = Brain exposure assay in mice (brain-to-plasma ratio after oral administration); type: in vivo; conditions: mouse, 100 mg/kg; for concentration at 6 h / Kp at 2 h / Kp uu at 2 h / Kp at 6 h / Kp uu at 6 h: male, C57BL/6JNIFDC, oral; for Kp at 2 h / Kp at 6 h: total brain-plasma concentration ratio; for Kp uu at 2 h / Kp uu at 6 h: unbound brain-to-plasma partition coefficient; for Kp at 2 h / Kp uu at 2 h / Cbrain, free (μM) / Cbrain, total (μM) / Cplasma, free (μM) / Cplasma, total (μM): 2 hr
Procedure: This protocol was used to determine the brain-to-plasma ratio in vivo in mice post oral administration of test compounds. Mice (C57BL/6JNIFDC, male, non-fasted, 18-30 g body weight, 3 mice for each timepoint) were dosed orally at 100 mg/kg (10 mg test compound/mL formulation, 10 mL dosing volume/kg) with plasma and brain tissues obtained at 2- and 6-hours post-administration. The oral dosing formulation composition used was 10% N,N-dimethylacetamide:20% propylene glycol:70% of 40% aqueous 2-hydroxypropyl-β-cyclodextrin.
For the isolation of mouse plasma from dosed animals, approximately 0.3 mL blood was collected by orbital sinus bleed and centrifuged (4000 g, 5 minutes, 4° C.). The plasma samples were stored frozen at −75±15° C. until further processing.
For the isolation of brain tissue from dosed animals, whole brain tissues were collected from euthanized and fully exsanguinated mice. The tissues were quickly rinsed with distilled water, dried with absorbent paper, followed by rapid freezing on dry ice and then storage at −75±15° C. until further processing. Brain tissue samples obtained from frozen whole brain were weighed and the samples homogenized using three equivalents of distilled water (3 mL per gram of brain tissue).
Standard and quality control samples were prepared by adding 3 μL of the test compound dimethyl sulfoxide (DMSO) stock solutions to blank plasma (30 μL) and blank brain homogenate aliquots (30 μL). Standard curves for brain and plasma were generated over a 1 to 1,000 ng/g test compound concentration range. For the extraction of test compound from plasma and brain tissue homogenate samples, a solution of acetonitrile containing internal standard ([…]) was added to 30 μL of samples with added 3 μL of DMSO. The samples then were vortex-mixed followed by centrifugation at 4000 rpm (4° C., 15 minutes). The resultant supernatants were diluted 5-fold with distilled water. Finally, 10 μL of the diluted supernatant was injected onto an LC-MS/MS instrument for quantitative analysis of test compound.
The brain-to-plasma ratio was calculated by the relationship: Brain-to-plasma ratio=Cbrain/Cplasma; where Cb is the concentration in brain tissue and Cp is the concentration in plasma at the corresponding timepoint.
Kp is the total brain-plasma concentration ratio; Kp=Cbrain/Cplasma.
Kp, uu is the unbound brain-to-plasma partition coefficient (Kp,uu,brain). It is a measure of the extent of the distribution equilibrium of a compound between the unbound (free) fractions in brain and in blood plasma; Kp, uu brain=Cu, brain/Cu, plasma.

[5] = Brain tissue binding, mouse; type: in vitro ADME; conditions: mouse, brain tissue
[6] = system: MDCK-MDR1 cells (P-gp, MDR1); experiment: MDR1-MDCK bidirectional permeability assay; conditions: A to B
Procedure: as §1, §2, §3, §4, §5

P-gp (MDR1) [7] = experiment: MDR1-MDCK bidirectional permeability assay; conditions: dog, MDCK-MDR1, pH 7.4, Efflux ratio
Procedure: as §1, §2, §3, §4, §5

[8] = plasma, read-out: Cplasma, free
[9] = plasma, read-out: Cplasma, total

Sequence of human NAMPT (P43490 whole entry): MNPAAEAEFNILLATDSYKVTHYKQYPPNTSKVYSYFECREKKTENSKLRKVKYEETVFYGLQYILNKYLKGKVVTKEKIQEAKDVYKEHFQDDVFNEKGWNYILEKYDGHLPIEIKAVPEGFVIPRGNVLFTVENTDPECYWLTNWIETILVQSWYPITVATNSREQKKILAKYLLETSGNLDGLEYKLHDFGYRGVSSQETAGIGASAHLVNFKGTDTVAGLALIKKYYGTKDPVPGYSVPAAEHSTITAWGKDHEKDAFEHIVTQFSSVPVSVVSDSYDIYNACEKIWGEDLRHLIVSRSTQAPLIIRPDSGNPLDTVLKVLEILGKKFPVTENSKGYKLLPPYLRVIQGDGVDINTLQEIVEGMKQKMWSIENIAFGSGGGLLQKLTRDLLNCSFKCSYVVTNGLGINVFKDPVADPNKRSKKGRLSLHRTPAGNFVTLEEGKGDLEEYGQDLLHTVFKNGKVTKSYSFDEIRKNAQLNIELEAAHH

Row | SMILES | efflux ratio at 120 min, 1 μM (P-gp (MDR1) [1]) | PappAB [2] | AC1.4 Human (human NAMPT) [µM] | pEC50 (human NAMPT) | fraction unbound [3] | concentration at 6 h ([4]; brain, read-out: Cbrain, free) [nM] | concentration at 6 h ([4]; brain, read-out: Cbrain, total) [nM] | concentration at 6 h [4, 8] [nM] | concentration at 6 h [4, 9] [nM] | Kp at 2 h [4] | Kp uu at 2 h [4] | Kp at 6 h [4] | Kp uu at 6 h [4] | Cbrain, free (μM) [4] | Cbrain, total (μM) [4] | Cplasma, free (μM) [4] | Cplasma, total (μM) [4] | fraction unbound [5] | PappAB [6] | efflux ratio at 120 min, 1 μM (P-gp (MDR1) [7])
1 | O=C(Nc1ccc(CC2CC3CCC(C2)N3S(=O)(=O)C2CC2)cc1)OCc1cnco1 (stereo not shown) [Compound 395, oxazol-5-ylmethyl (4-((8-(cyclopropylsulfonyl)-8-azabicyclo[3.2.1]octan-3-yl)methyl)phenyl)carbamate] | 5.02 | 2.81 | 0.12 | 5.49 | – | – | – | – | – | – | – | – | – | – | – | – | – | – | – | –
2 | CN(C)C(=O)N1CCC[C@H](c2ccc(NC(=O)OCc3cnco3)cc2)C1 [Compound 376, oxazol-5-ylmethyl (R)-(4-(1-(dimethylcarbamoyl)piperidin-3-yl)phenyl)carbamate] | – | – | 0.06 | 5.69 | 0.024 | 1000 | 7500 | 1090 | 45500 | 0.16 | 0.89 | 0.16 | 0.92 | 2.2, μM | 16.5, μM | 2.48, μM | 104, μM | 0.132 | 8.06 | 4.11
3 | CN(C)S(=O)(=O)N1CCC(Cc2ccc(NC(=O)OCc3cnco3)cc2)CC1 [Compound 27, oxazol-5-ylmethyl (4-((1-(N,N-dimethylsulfamoyl)piperidin-4-yl)methyl)phenyl)carbamate] | – | – | 0.36 | 5.28 | 0.037 | 70 | 1500 | 220 | 5900 | 0.29 | 0.41 | 0.25 | 0.32 | 0.64, μM | 12.0, μM | 1.55, μM | 42.1, μM | 0.053 | 7.68 | 1.99
4 | CN(C)C(=O)N1CCC(Cc2ccc(NC(=O)OCc3cnco3)cc2F)CC1 [Compound 449, oxazol-5-ylmethyl (4-((1-(dimethylcarbamoyl)piperidin-4-yl)methyl)-3-fluorophenyl)carbamate] | – | – | 0.10 | 5.53 | 0.022 | 280 | 8400 | 390 | 18000 | 0.42 | 0.64 | 0.47 | 0.72 | 0.83, μM | 25.0, μM | 1.30, μM | 59.4, μM | 0.033 | 3.53 | 5.74
